Data from US10420718B2, “Effervescent compositions containing co-crystals of the acid part” (University of Bradford, priority 2014, dated 2019).

How the values were obtained:
[1] = Stability of co-crystals stored at 98% relative humidity, checked by XRD; assay type: physicochemical; conditions: 98% RH
Description: The co-crystals were stored at 98% relative humidity and the stability was evaluated after 24 hours using powder X-ray diffraction. […] This stability of the co-crystal in the presence of high amounts of atmospheric moisture is responsible for maintenance of the effervescent action. The stability of the co-crystals to moisture was investigated by storing the co-crystals at 98% relative humidity and the following results were observed. The co-crystal samples were analysed with XRD to check whether the co-crystal retained its structure or became dissociated or degraded over time on exposure to the atmosphere. Stability of Co-Crystals at 98% RH

[2] = Dynamic vapour sorption (DVS) study; assay type: physicochemical; conditions: for Moisture sorption (weight gain) at 90% relative humidity: DVS, 90% RH
Description: UK. The sample weights were taken in the range of 30-50 mg and below experimental parameters were kept constant for all samples.

SMILES | XRD results (co-crystal stability) ([1]; Day 14) | XRD results (co-crystal stability) ([1]; Day 18) | Behaviour in DVS study (in words) ([2]; DVS 0-90% RH, 25 C) | Moisture sorption (weight gain) at 90% relative humidity ([2]; 25 C) [%] | Change In Mass (%) ([2]; Target Relative Humidity 0.0%) | Change In Mass (%) ([2]; Target Relative Humidity 10.0%) | Change In Mass (%) ([2]; Target Relative Humidity 20.0%) | Change In Mass (%) ([2]; Target Relative Humidity 30.0%) | Change In Mass (%) ([2]; Target Relative Humidity 40.0%) | Change In Mass (%) ([2]; Target Relative Humidity 50.0%) | Change In Mass (%) ([2]; Target Relative Humidity 60.0%) | Change In Mass (%) ([2]; Target Relative Humidity 70.0%) | Change In Mass (%) ([2]; Target Relative Humidity 80.0%) | Change In Mass (%) ([2]; Target Relative Humidity 90.0%) | Weight gain due to moisture sorption (total) ([2]; DVS 0-90% RH, 25 C) [%]
NC(=O)c1cccnc1.NC(=O)c1cccnc1.O=C(O)CC(O)(CC(=O)O)C(=O)O [Citric acid-nicotinamide, 1:2, citric acid-nicotinamide 1:2 co-crystal] | Stable | Stable | non-hygroscopic | 0.23 | – | – | – | – | – | – | – | – | – | – | –
NC(=O)c1cccnc1.NC(=O)c1cccnc1.O=C(O)CC(O)(CC(=O)O)C(=O)O [Citric acid:nicotinamide, 1:2 co-crystal] | – | – | – | – | 0.0002 | 0.0044 | 0.0070 | 0.0108 | 0.0145 | 0.0203 | 0.0318 | 0.0561 | 0.0976 | 0.2319 | –
O=C(O)CC(O)(CC(=O)O)C(=O)O [citric acid] | – | – | undergoes liquefaction | – | 0.00 | 0.00 | 0.00 | 0.00 | 0.00 | 0.00 | 0.01 | 0.02 | 4.65 | 31.21 | 31
O=C([O-])O.[Na+] [sodium bicarbonate] | – | – | – | 0.32 | −0.0001 | 0.0027 | 0.0042 | 0.0056 | 0.0074 | 0.0103 | 0.0143 | 0.0240 | 0.0746 | 0.3236 | –
